Assays:
[1] = system: T-cell mediated immune response; settings: J. Immunol. 2007; 178: 1573-1580; cited from earlier work
[2] = system: EMT-6 mouse mammary tumor cells; experiment: antitumor activity in mice bearing subcutaneous EMT-6 mouse mammary tumor cells; assay type: in vivo
Description: A randomized trial was conducted to evaluate the antitumor activity of fosbretabulin tromethamine (CA4P) in mice bearing subcutaneous EMT-6 mouse mammary tumor cells in combination with other treatments. Other treatments include a combination treatment with anti-CTLA-4 antibody (ref: BE0131, Bioxcell; clone: 9H10; reactivity: mouse; isotype: Hamster IgG1; storage conditions: +4° C.).
CA4P and anti-CTLA-4 antibodies were prepared in phosphate buffered saline (PBS). CA4P was injected at the dose of 100 mg/kg. The anti-CTLA-4 antibody was injected at the dose of 10 mg/kg. The tested items were injected into the peritoneal cavity of mice (e.g. intraperitoneally, IP). The administration volume was 10 mL/kg (200 μL/mouse of 20 g) adjusted to the most recent individual body weight of the mice.
An EMT-6 cell line having an ATCC origin and a culture medium was used. The EMT-6 cell line was established from a transplantable murine mammary carcinoma that arose in a BALB/cCRGL mouse after implantation of a hyperplastic mammary alveolar nodule. EMT-6 tumor cells were grown as a monolayer at 37° C. in a humidified atmosphere (5% CO2, 95% air). The culture medium was RPMI 1640 containing 2 mM L-glutamine (ref: BE12-702F, Lonza, Verviers, Belgium) supplemented with 10% fetal bovine serum (ref: 3302, Lonza).
Healthy female Balb/C mice, 6-8 weeks old at reception, were used in the study. […]

SMILES: COc1cc2c(c(OC)c1OC)-c1ccc(OP(=O)(O)O)cc1[C@@H](NC(C)=O)CC2 [ZD6126]
- effect on T-cell mediated immune response [1]: may reduce T-cell mediated immune response

SMILES: COc1ccc(/C=C\c2cc(OC)c(OC)c(OC)c2)cc1OP(=O)(O)O.NC(CO)(CO)CO [CA4P, fosbretabulin tromethamine]
- average tumor size (tumor volume versus time, FIG. 1) ([2]; Balb/C mice, EMT-6 tumors, CA4P 100 mg/kg IP, anti-CTLA-4 10 mg/kg IP, TWx2): steadily increased
- mice showing tumor regression ([2]; groups of 8 Balb/C mice, subcutaneous EMT-6 tumors, CA4P 100 mg/kg IP TWx2, anti-CTLA-4 10 mg/kg IP TWx2): One of the eight

— US11419934B2, “Use of VDAS to enhance immunomodulating therapies against tumors” (Oncotelic Therapeutics, Inc., priority 2015, dated 2022)
